In patent US20140093884A1, “Process for Identifying Novel Anti-Inflammatory Molecules with Reduced Direct Transrepression of Genes Induced by Glucocorticoids” (UNIVERSITE DE STRASBOURG, priority 2011, published 2014):

How the values were obtained:
Assay type in all cases: in vivo, mouse
Design in all cases: key: ♦: not repressed
[1] = system: IR0, IR1 and IR2 nGRE containing genes; assay: Q-RT-PCR of IR nGRE-containing genes in liver of 18 hr-Dex-treated WT mice
Excerpt: (§1) Real time PCR. Total RNA was reverse transcribed using hexamers, followed by Q-PCR, as reported (Li et al., 2005).
(§2) A comparison of mouse and human orthologues indicated conservations of such IR elements (51 IR0, 379 IR1 and 566 IR2). Within these orthologue gene families, 35 IR0, 50 IR1 and 50 IR2 nGRE-containing mouse genes (Table 4) were randomly chosen to investigate whether (i) they were expressed in epidermis, intestinal epithelium and liver, (ii) their expression was inhibited by the GC agonist Dexamethasone (Dex), (iii) this inhibition could be relieved by RU486 co-administration, and also if it could be correlated with GR and corepressor binding to their putative IR nGREs.

[2] = system: IR0, IR1 and IR2 nGRE containing genes; assay: Q-RT-PCR of IR nGRE-containing genes in intestinal epithelium of 18 hr-Dex-treated WT mice
Excerpt: as §1, §2

[3] = system: IR0, IR1 and IR2 nGRE containing genes; assay: Q-RT-PCR of IR nGRE-containing genes in epidermis of 18 hr-Dex-treated WT mice
Excerpt: as §1, §2

C[C@@H]1C[C@H]2[C@@H]3CCC4=CC(=O)C=C[C@]4(C)[C@@]3(F)[C@@H](O)C[C@]2(C)[C@@]1(O)C(=O)CO [Dex, dexamethasone]
♦: AIP transcript level, not repressed ([1]; IR0 nGRE gene) | CITED1 transcript level, not repressed ([1]; IR0 nGRE gene) | DLAT transcript level, not repressed ([1]; IR0 nGRE gene) | FBXL18 transcript level, not repressed ([1]; IR0 nGRE gene) | GPIHBP1 transcript level, not repressed ([1]; IR0 nGRE gene) | INHBE transcript level, not repressed ([1]; IR0 nGRE gene) | MTG1 transcript level, not repressed ([1]; IR0 nGRE gene) | NMYC transcript level, not repressed ([1]; IR0 nGRE gene) | PTMS transcript level, not repressed ([1]; IR0 nGRE gene) | TCF25 transcript level, not repressed ([1]; IR0 nGRE gene) | ZBED4 transcript level, not repressed ([1]; IR0 nGRE gene) | ZFP113 transcript level, not repressed ([1]; IR0 nGRE gene) | ZFP784 transcript level, not repressed ([1]; IR0 nGRE gene) | ADRA2A transcript level, not repressed ([1]; IR1 nGRE gene) | AGPAT2 transcript level, not repressed ([1]; IR1 nGRE gene) | BMP3 transcript level, not repressed ([1]; IR1 nGRE gene) | CADM4 transcript level, not repressed ([1]; IR1 nGRE gene) | CDH11 transcript level, not repressed ([1]; IR1 nGRE gene) | CDK9 transcript level, not repressed ([1]; IR1 nGRE gene) | CTSA transcript level, not repressed ([1]; IR1 nGRE gene) | DYNLT3 transcript level, not repressed ([1]; IR1 nGRE gene) | GPR108 transcript level, not repressed ([1]; IR1 nGRE gene) | GPR153 transcript level, not repressed ([1]; IR1 nGRE gene) | HSD11B2 transcript level, not repressed ([1]; IR1 nGRE gene) | KLC3 transcript level, not repressed ([1]; IR1 nGRE gene) | LRRC transcript level, not repressed ([1]; IR1 nGRE gene) | MT2 transcript level, not repressed ([1]; IR1 nGRE gene) | MTHFR transcript level, not repressed ([1]; IR1 nGRE gene) | MXI1 transcript level, not repressed ([1]; IR1 nGRE gene) | SCP2 transcript level, not repressed ([1]; IR1 nGRE gene) | SGK3 transcript level, not repressed ([1]; IR1 nGRE gene) | SREPF1 transcript level, not repressed ([1]; IR1 nGRE gene) | SSTR4 transcript level, not repressed ([1]; IR1 nGRE gene) | STAB1 transcript level, not repressed ([1]; IR1 nGRE gene) | CCR10 transcript level, not repressed ([1]; IR2 nGRE gene) | COL4A3BP transcript level, not repressed ([1]; IR2 nGRE gene) | DPAGT1 transcript level, not repressed ([1]; IR2 nGRE gene) | ELMOD3 transcript level, not repressed ([1]; IR2 nGRE gene) | ERP27 transcript level, not repressed ([1]; IR2 nGRE gene) | FOXJ1 transcript level, not repressed ([1]; IR2 nGRE gene) | FOXQ1 transcript level, not repressed ([1]; IR2 nGRE gene) | GGT1 transcript level, not repressed ([1]; IR2 nGRE gene) | GOT1 transcript level, not repressed ([1]; IR2 nGRE gene) | GPR97 transcript level, not repressed ([1]; IR2 nGRE gene) | GRASP transcript level, not repressed ([1]; IR2 nGRE gene) | HSPB2 transcript level, not repressed ([1]; IR2 nGRE gene) | HSPB3 transcript level, not repressed ([1]; IR2 nGRE gene) | MUC20 transcript level, not repressed ([1]; IR2 nGRE gene) | POMGNT1 transcript level, not repressed ([1]; IR2 nGRE gene) | PRKRA transcript level, not repressed ([1]; IR2 nGRE gene) | SOCS1 transcript level, not repressed ([1]; IR2 nGRE gene) | TNFRSF25 transcript level, not repressed ([1]; IR2 nGRE gene) | AIP transcript level, not repressed ([2]; IR0 nGRE gene) | ANO4 transcript level, not repressed ([2]; IR0 nGRE gene) | CITED1 transcript level, not repressed ([2]; IR0 nGRE gene) | DLAT transcript level, not repressed ([2]; IR0 nGRE gene) | FBXL18 transcript level, not repressed ([2]; IR0 nGRE gene) | GPIHBP1 transcript level, not repressed ([2]; IR0 nGRE gene) | KLF5 transcript level, not repressed ([2]; IR0 nGRE gene) | LAG3 transcript level, not repressed ([2]; IR0 nGRE gene) | MAPK4 transcript level, not repressed ([2]; IR0 nGRE gene) | MTG1 transcript level, not repressed ([2]; IR0 nGRE gene) | NDUFA4L2 transcript level, not repressed ([2]; IR0 nGRE gene) | NEU1 transcript level, not repressed ([2]; IR0 nGRE gene) | PPIL5 transcript level, not repressed ([2]; IR0 nGRE gene) | PTMS transcript level, not repressed ([2]; IR0 nGRE gene) | SLC25A5 transcript level, not repressed ([2]; IR0 nGRE gene) | SP9 transcript level, not repressed ([2]; IR0 nGRE gene) | SPARC transcript level, not repressed ([2]; IR0 nGRE gene) | TCF25 transcript level, not repressed ([2]; IR0 nGRE gene) | TRPM7 transcript level, not repressed ([2]; IR0 nGRE gene) | ZBED4 transcript level, not repressed ([2]; IR0 nGRE gene) | ZFP113 transcript level, not repressed ([2]; IR0 nGRE gene) | ZFP467 transcript level, not repressed ([2]; IR0 nGRE gene) | ZFP784 transcript level, not repressed ([2]; IR0 nGRE gene) | ADRA2A transcript level, not repressed ([2]; IR1 nGRE gene) | AGPAT2 transcript level, not repressed ([2]; IR1 nGRE gene) | ATN1 transcript level, not repressed ([2]; IR1 nGRE gene) | BCL2L1 transcript level, not repressed ([2]; IR1 nGRE gene) | BMP3 transcript level, not repressed ([2]; IR1 nGRE gene) | CADM4 transcript level, not repressed ([2]; IR1 nGRE gene) | CDH11 transcript level, not repressed ([2]; IR1 nGRE gene) | CDK9 transcript level, not repressed ([2]; IR1 nGRE gene) | CTSA transcript level, not repressed ([2]; IR1 nGRE gene) | DYNLT3 transcript level, not repressed ([2]; IR1 nGRE gene) | GPR108 transcript level, not repressed ([2]; IR1 nGRE gene) | GPR153 transcript level, not repressed ([2]; IR1 nGRE gene) | KLC3 transcript level, not repressed ([2]; IR1 nGRE gene) | LRRC transcript level, not repressed ([2]; IR1 nGRE gene) | MTHFR transcript level, not repressed ([2]; IR1 nGRE gene) | MXI1 transcript level, not repressed ([2]; IR1 nGRE gene) | NKRF transcript level, not repressed ([2]; IR1 nGRE gene) | SCP2 transcript level, not repressed ([2]; IR1 nGRE gene) | SOCS3 transcript level, not repressed ([2]; IR1 nGRE gene) | SREPF1 transcript level, not repressed ([2]; IR1 nGRE gene) | SSTR4 transcript level, not repressed ([2]; IR1 nGRE gene) | STAB1 transcript level, not repressed ([2]; IR1 nGRE gene) | COL4A3BP transcript level, not repressed ([2]; IR2 nGRE gene) | DPAGT1 transcript level, not repressed ([2]; IR2 nGRE gene) | ELMOD3 transcript level, not repressed ([2]; IR2 nGRE gene) | ERP27 transcript level, not repressed ([2]; IR2 nGRE gene) | FSTL1 transcript level, not repressed ([2]; IR2 nGRE gene) | GIT2 transcript level, not repressed ([2]; IR2 nGRE gene) | GLU1 transcript level, not repressed ([2]; IR2 nGRE gene) | GOT1 transcript level, not repressed ([2]; IR2 nGRE gene) | GPR68 transcript level, not repressed ([2]; IR2 nGRE gene) | GUK1 transcript level, not repressed ([2]; IR2 nGRE gene) | HSPB2 transcript level, not repressed ([2]; IR2 nGRE gene) | HSPB3 transcript level, not repressed ([2]; IR2 nGRE gene) | ITPKA transcript level, not repressed ([2]; IR2 nGRE gene) | MUC20 transcript level, not repressed ([2]; IR2 nGRE gene) | PRKRA transcript level, not repressed ([2]; IR2 nGRE gene) | SLC2A8 transcript level, not repressed ([2]; IR2 nGRE gene) | SLC25A34 transcript level, not repressed ([2]; IR2 nGRE gene) | SOCS1 transcript level, not repressed ([2]; IR2 nGRE gene) | TGM6 transcript level, not repressed ([2]; IR2 nGRE gene) | TNFRSF25 transcript level, not repressed ([2]; IR2 nGRE gene) | AIP transcript level, not repressed ([3]; IR0 nGRE gene) | DDI1 transcript level, not repressed ([3]; IR0 nGRE gene) | DLAT transcript level, not repressed ([3]; IR0 nGRE gene) | FBXL18 transcript level, not repressed ([3]; IR0 nGRE gene) | FSD2 transcript level, not repressed ([3]; IR0 nGRE gene) | GPIHBP1 transcript level, not repressed ([3]; IR0 nGRE gene) | HCST transcript level, not repressed ([3]; IR0 nGRE gene) | KLF5 transcript level, not repressed ([3]; IR0 nGRE gene) | LAG3 transcript level, not repressed ([3]; IR0 nGRE gene) | MTG1 transcript level, not repressed ([3]; IR0 nGRE gene) | NEU1 transcript level, not repressed ([3]; IR0 nGRE gene) | PTMS transcript level, not repressed ([3]; IR0 nGRE gene) | SLC25A5 transcript level, not repressed ([3]; IR0 nGRE gene) | TCF25 transcript level, not repressed ([3]; IR0 nGRE gene) | TRPM7 transcript level, not repressed ([3]; IR0 nGRE gene) | ZBED4 transcript level, not repressed ([3]; IR0 nGRE gene) | ZFP113 transcript level, not repressed ([3]; IR0 nGRE gene) | ZFP467 transcript level, not repressed ([3]; IR0 nGRE gene) | ZFP784 transcript level, not repressed ([3]; IR0 nGRE gene) | AGPAT2 transcript level, not repressed ([3]; IR1 nGRE gene) | AKAP6 transcript level, not repressed ([3]; IR1 nGRE gene) | ARHGAP23 transcript level, not repressed ([3]; IR1 nGRE gene) | ATN1 transcript level, not repressed ([3]; IR1 nGRE gene) | B4GALT2 transcript level, not repressed ([3]; IR1 nGRE gene) | BCL2L1 transcript level, not repressed ([3]; IR1 nGRE gene) | BEST2 transcript level, not repressed ([3]; IR1 nGRE gene) | BMP3 transcript level, not repressed ([3]; IR1 nGRE gene) | CACNA2D3 transcript level, not repressed ([3]; IR1 nGRE gene) | CADM4 transcript level, not repressed ([3]; IR1 nGRE gene) | CDK9 transcript level, not repressed ([3]; IR1 nGRE gene) | CTSA transcript level, not repressed ([3]; IR1 nGRE gene) | DYNLT3 transcript level, not repressed ([3]; IR1 nGRE gene) | GNG10 transcript level, not repressed ([3]; IR1 nGRE gene) | GPR108 transcript level, not repressed ([3]; IR1 nGRE gene) | GPR153 transcript level, not repressed ([3]; IR1 nGRE gene) | JUND transcript level, not repressed ([3]; IR1 nGRE gene) | KLC3 transcript level, not repressed ([3]; IR1 nGRE gene) | LRRC transcript level, not repressed ([3]; IR1 nGRE gene) | MT2 transcript level, not repressed ([3]; IR1 nGRE gene) | MTHFR transcript level, not repressed ([3]; IR1 nGRE gene) | MXI1 transcript level, not repressed ([3]; IR1 nGRE gene) | NKRF transcript level, not repressed ([3]; IR1 nGRE gene) | SCP2 transcript level, not repressed ([3]; IR1 nGRE gene) | SREPF1 transcript level, not repressed ([3]; IR1 nGRE gene) | SSTR4 transcript level, not repressed ([3]; IR1 nGRE gene) | STAB1 transcript level, not repressed ([3]; IR1 nGRE gene) | USF1 transcript level, not repressed ([3]; IR1 nGRE gene) | COL4A3BP transcript level, not repressed ([3]; IR2 nGRE gene) | ELMOD3 transcript level, not repressed ([3]; IR2 nGRE gene) | FKBP2 transcript level, not repressed ([3]; IR2 nGRE gene) | FOXQ1 transcript level, not repressed ([3]; IR2 nGRE gene) | GGT1 transcript level, not repressed ([3]; IR2 nGRE gene) | GIT2 transcript level, not repressed ([3]; IR2 nGRE gene) | GLU1 transcript level, not repressed ([3]; IR2 nGRE gene) | GOT1 transcript level, not repressed ([3]; IR2 nGRE gene) | GPR97 transcript level, not repressed ([3]; IR2 nGRE gene) | GRASP transcript level, not repressed ([3]; IR2 nGRE gene) | HSPB2 transcript level, not repressed ([3]; IR2 nGRE gene) | POMGNT1 transcript level, not repressed ([3]; IR2 nGRE gene) | PRKRA transcript level, not repressed ([3]; IR2 nGRE gene) | RORA transcript level, not repressed ([3]; IR2 nGRE gene) | SLC2A8 transcript level, not repressed ([3]; IR2 nGRE gene) | TGM6 transcript level, not repressed ([3]; IR2 nGRE gene)
